Measured values reported in US6143739A, “Basic proline-amide derivatives of GE 2270 and GE 2270-like antibiotics” (Biosearch Italia S.p.A., priority 1995, dated 2000).

Legend:
[1] = tested on: Bacteroides fragilis ATCC 25285 L1011; assay: MIC by microbroth dilution; type: cell-based; conditions: 0.01% (w/v) BSA, 10^5 CFU/ml, read after 48 h, 37° C., anaerobic N2-CO2-H2, Wilkins-Chalgren broth
Description: (§1) The minimal inhibitory concentration (MIC) has been determined by microbroth dilution methodology, in the presence of 0.01% (w/v) of bovine serum albumin (BSA). BSA is added to the diluent to avoid possible adherence of the compounds of the invention to the plastic surface of the microtiter wells, as disclosed also by B. Goldstein et al., Antimicrobial Agents and Chemotherapy, 37 (1993), 741-745.
(§2) Inocula were 10^4 CFU/ml, except for Propionibacterium acnes and Bacteroides fragilis (10^5 CFU/ml).
(§3) MICs were read after 18-24 h, except for Haemophilus influenzae, P. acnes, B. fragilis (48 h).
(§4) All microorganisms were incubated at 37° C.; H. influenzae in a 5% CO2 atmosphere, anaerobes in a N2 --CO2 --H2 (80:10:10) mixture; other organisms in air.
(§5) The growth media are: Oxoid Iso-Sensitest broth for staphylococci and Enterococcus faecalis); Difco Todd Hewitt broth for streptococci; Difco brain heart infusion broth+1% Difco Supplement C for H. influenzae; Difco Wilkins-Chalgren broth for anaerobes.

[2] = tested on: Staph. epidermidis ATCC 12228 L147; assay: MIC by microbroth dilution; type: cell-based; conditions: 0.01% (w/v) BSA, 10^4 CFU/ml, read after 18-24 h, 37° C., Iso-Sensitest broth
Description: as §1, §2, §3, §4, §5

[3] = tested on: Staph. haemolyticus L602; assay: MIC by microbroth dilution; type: cell-based; conditions: 0.01% (w/v) BSA, 10^4 CFU/ml, read after 18-24 h, 37° C., Iso-Sensitest broth
Description: as §1, §2, §3, §4, §5

[4] = tested on: Staphylococcus aureus L165; assay: MIC by microbroth dilution; type: cell-based; conditions: 0.01% (w/v) BSA, 10^4 CFU/ml, read after 18-24 h, 37° C., Iso-Sensitest broth
Description: as §1, §2, §3, §4, §5

[5] = tested on: Strept. agalactiae L310; assay: MIC by microbroth dilution; type: cell-based; conditions: 0.01% (w/v) BSA, 10^4 CFU/ml, read after 18-24 h, 37° C., Todd Hewitt broth
Description: as §1, §2, §3, §4, §5

[6] = tested on: Strept. sanguis L1721; assay: MIC by microbroth dilution; type: cell-based; conditions: 0.01% (w/v) BSA, 10^4 CFU/ml, read after 18-24 h, 37° C., Todd Hewitt broth
Description: as §1, §2, §3, §4, §5

[7] = tested on: Streptococcus pyogenes L49; assay: MIC by microbroth dilution; type: cell-based; conditions: 0.01% (w/v) BSA, 10^4 CFU/ml, read after 18-24 h, 37° C., Todd Hewitt broth
Description: as §1, §2, §3, §4, §5

[8] = tested on: Strept. pneumoniae L44; assay: MIC by microbroth dilution; type: cell-based; conditions: 0.01% (w/v) BSA, 10^4 CFU/ml, read after 18-24 h, 37° C., Todd Hewitt broth
Description: BSA is added to the diluent to avoid possible adherence of the compounds of the invention to the plastic surface of the microtiter wells, as disclosed also by B. Goldstein et al., Antimicrobial Agents and Chemotherapy, 37 (1993), 741-745. Inocula were 10^4 CFU/ml, except for Propionibacterium acnes and Bacteroides fragilis (10^5 CFU/ml). MICs were read after 18-24 h, except for Haemophilus influenzae, P. acnes, B. fragilis (48 h). All microorganisms were incubated at 37° C.; H. influenzae in a 5% CO2 atmosphere, anaerobes in a N2 --CO2 --H2 (80:10:10) mixture; other organisms in air. The growth media are: Oxoid Iso-Sensitest broth for staphylococci and Enterococcus faecalis); Difco Todd Hewitt broth for streptococci; Difco brain heart infusion broth+1% Difco Supplement C for H. influenzae; Difco Wilkins-Chalgren broth for anaerobes.

[9] = tested on: Enterococc. faecalis ATCC 7080 L149; assay: MIC by microbroth dilution; type: cell-based, Enterococcus faecalis; conditions: 0.01% (w/v) BSA, 10^4 CFU/ml, read after 18-24 h, 37° C., Iso-Sensitest broth
Description: as §1, §2, §3, §4, §5

[10] = tested on: Propionibact. acnes ATCC 6919 L1014; assay: MIC by microbroth dilution; type: cell-based, Propionibacterium acnes; conditions: 0.01% (w/v) BSA, 10^5 CFU/ml, read after 48 h, 37° C., anaerobic N2-CO2-H2, Wilkins-Chalgren broth
Description: as §1, §2, §3, §4, §5

[11] = tested on: Haemoph. influenzae ATCC 19418 L970; assay: MIC by microbroth dilution; type: cell-based, Haemophilus influenzae; conditions: 0.01% (w/v) BSA, 10^4 CFU/ml, read after 48 h, 37° C., 5% CO2, brain heart infusion broth+1% Supplement C
Description: as §1, §2, §3, §4, §5

[12] = tested on: staphylococci isolates; assay: MIC on clinical isolates; type: cell-based; conditions: highest MIC observed
[13] = tested on: streptococci isolates; assay: MIC on clinical isolates; type: cell-based; conditions: highest MIC observed
[14] = tested on: enterococci isolates; assay: MIC on clinical isolates; type: cell-based; conditions: highest MIC observed
[15] = tested on: S. aureus (L819); assay: experimental septicemia in the mouse; type: in vivo; conditions: immunocompetent CD-1 mice infected i.p.; intravenously once, immediately after infection; survival on the 7th day
Description: (§6) The antimicrobial activity of the compounds of the invention is confirmed also in experimental septicemia in the mouse. Control and treatment groups contain ten CD-1 mice (Charles River) weighing 18-22 g. Two groups of immunocompetent mice are infected intraperitoneally with 0.5 ml of bacterial suspension prepared by diluting an overnight culture of S. aureus ([…]) or S. pyogenes ([…]) with sterile peptonized saline, while one group of neutropenic mice is infected intraperitoneally with 0.5 ml of bacterial suspension prepared by diluting an overnight culture of or E. faecalis ([…]) with sterile peptonized saline. Inocula are adjusted so that untreated animals died of septicemia within 48 h. The compound to be tested is administered intravenously once, immediately after infection with S. aureus, or twice, immediately and 5 hours after infection with S. pyogenes or E. faecalis. On the 7th day, the ED50 in mg/kg is calculated by the method of Spearman and Kraber (D. J. Finney "Statistical Methods in Biological Assay", Griffin, page 524, 1952) from the percentage of surviving animals at each dose.

[16] = tested on: S. pyogenes (L49); assay: experimental septicemia in the mouse; type: in vivo; conditions: immunocompetent CD-1 mice infected i.p.; intravenously twice, immediately and 5 hours after infection; survival on the 7th day
Description: as §6

[17] = tested on: E. faecalis (L1139); assay: experimental septicemia in the mouse (neutropenic); type: in vivo; conditions: neutropenic CD-1 mice infected i.p.; intravenously twice, immediately and 5 hours after infection; survival on the 7th day
Description: as §6

[18] = tested on: gram positive bacteria; conditions: described by K. Shimanaka et al.; cited from earlier work

For CCN(CC)CCNC(=O)C1CCCN1C(=O)C1COC(c2csc(-c3ccc4c(n3)-c3csc(n3)-c3csc(n3)C(C(O)c3ccccc3)NC(=O)CNC(=O)c3nc(sc3COC)C(C(C)C)NC(=O)c3nc(sc3C)C(CC(=O)NC)NC(=O)c3csc-4n3)n2)=N1 (stereo not shown) [Compound 3s], the “MIC of the compounds, Bacteroides fragilis ATCC 25285 L1011” value [1] was 8 µg/mL, the “MIC of the compounds, Staph. epidermidis ATCC 12228 L147” value [2] was 0.13 µg/mL and the “MIC of the compounds, Staph. haemolyticus L602” value [3] was 0.13 µg/mL. The “MIC of the compounds, Staphylococcus aureus L165” value [4] was 0.06 µg/mL, the “MIC of the compounds, Strept. agalactiae L310” value [5] was 0.5 µg/mL and the “MIC of the compounds, Strept. sanguis L1721” value [6] was 0.13 µg/mL. The “MIC of the compounds, Streptococcus pyogenes L49” value [7] was 0.25 µg/mL, the “MIC of the compounds, Strept. pneumoniae L44” value [8] was 0.13 µg/mL and the “MIC of the compounds, Enterococc. faecalis ATCC 7080 L149” value [9] was 0.06 µg/mL. For the same compound, the “MIC of the compounds, Propionibact. acnes ATCC 6919 L1014” value [10] was 0.03 µg/mL, the “MIC of the compounds, Haemoph. influenzae ATCC 19418 L970” value [11] was 8 µg/mL and the “MIC against staphylococci isolates” value [12] was ≤ 0.5 µg/mL. For the same compound, the “MIC against streptococci isolates” value [13] was ≤ 1.0 µg/mL, the “MIC against enterococci isolates” value [14] was ≤ 0.13 µg/mL and the “ED50 in experimental septicemia, S. aureus (L819)” value [15] was 1.5 mg/kg/dose. The “ED50 in experimental septicemia, S. pyogenes (L49)” value [16] was 7 mg/kg/dose and the “ED50 in experimental septicemia, E. faecalis (L1139)” value [17] was 0.67 mg/kg/dose.
For CNC(=O)CC1NC(=O)c2csc(n2)-c2ccc(-c3nc(C4=NC(C(=O)N5CCCC5C(N)=O)CO4)cs3)nc2-c2csc(n2)-c2csc(n2)C(C(C)C)NC(=O)CNC(=O)c2csc(n2)C(C(C)C)NC(=O)c2nc1sc2C (stereo not shown) [amythiamicin factor A], the “antimicrobial activity against gram positive bacteria” value [18] is given as “shows antimicrobial activity against gram positive bacteria”.
For CCN(CC)CCNC(=O)C1CCCN1C(=O)C1COC(c2csc(-c3ccc4c(n3)-c3csc(n3)-c3csc(n3)C(C(O)c3ccccc3)NC(=O)CNC(=O)c3nc(sc3COC)C(C(C)C)NC(=O)c3nc(sc3C)C(CC(=O)NC)NC(=O)c3csc-4n3)n2)=N1 (mixture of isomers) [Compound 3], the “MIC of the compounds, Bacteroides fragilis ATCC 25285 L1011” value [1] was 8 µg/mL, the “MIC of the compounds, Staph. epidermidis ATCC 12228 L147” value [2] was 0.13 µg/mL and the “MIC of the compounds, Staph. haemolyticus L602” value [3] was 0.13 µg/mL. The “MIC of the compounds, Staphylococcus aureus L165” value [4] was 0.03 µg/mL, the “MIC of the compounds, Strept. sanguis L1721” value [6] was 0.25 µg/mL and the “MIC of the compounds, Streptococcus pyogenes L49” value [7] was 0.5 µg/mL. The “MIC of the compounds, Strept. pneumoniae L44” value [8] was 0.13 µg/mL, the “MIC of the compounds, Enterococc. faecalis ATCC 7080 L149” value [9] was 0.03 µg/mL and the “MIC of the compounds, Propionibact. acnes ATCC 6919 L1014” value [10] was 0.03 µg/mL. For the same compound, the “MIC of the compounds, Haemoph. influenzae ATCC 19418 L970” value [11] was 8 µg/mL.
